From PMC11930985 (Nature Communications, 2025)
Values after ≈ are worked out from the molar mass of the structure shown. Values joined by “and” are separate entries in the source; they are usually repeats but may differ in a detail not shown here. Equal entries are not always repeated.

Tests used:
AML/MDS patients = assay: Kaplan-Meier OS, EFS, RFS; format: in vivo, human
Description: Response assessments (peripheral blood and BM) were performed at Cycle 2 Day 1 (pre-dose), Cycle 4 Day 1 (pre-dose) and repeated every 3 cycles thereafter or when clinically indicated. Patients who completed 12 months of study treatment and had not experienced progressive disease (PD) underwent response assessment every 5 cycles until PD was confirmed. Efficacy endpoints were: Objective response rate (ORR), defined as the number of patients with CR, CRi, MLFS, MR or PR divided by the total number of patients in the cohort/group; Disease control rate (DCR), defined as the number of patients with CR, CRi, MLFS, MR, PR or unchanged disease for at least three cycles (considered to have stable disease (SD)) divided by the total number of patients in the cohort/group; Overall survival (OS), defined as (date of death or censoring) – (date of the first study treatment) +1. Censoring date was the last date the patient was known to be alive; Event free survival (EFS), defined as (earliest of date of death, date of progression or date of censoring) – (date of the first study treatment) +1, with event defined as death or progression. Patients who started a new anti-cancer treatment before documented progression were censored at the date of the last assessment prior to start of non-protocol treatment. […] Patients who were alive without documented progression on the last day of contact were censored at the date of the last assessment.
Analyses were performed on response data, AEs, and PK parameters. Subgroup analysis by sex was not performed due to the small number of patients. Statistical analyses were performed using descriptive statistics. The time-to-event variables RFS, EFS, and OS were analyzed using Kaplan-Meier estimates, and median time-to-event was reported alongside its 95% confidence interval (CI). Where relevant, differences between different subgroups for time-to-event endpoints were assessed using a one-tailed log-rank test.

pAKT S473 = assay: CyTOF maximal inhibition in Undefined/Immature Myeloid cells: pAKT; format: in vivo, human
Text: Pharmacodynamic endpoints included the measurement of inhibition of pAXL, pERK, pAKT, pS6 and pSTAT1/3/5 in blast cells (defined as cells with abnormal surface marker expression as compared to healthy donor peripheral blood mononuclear cells and undefined/immature myeloid cells (defined as cells carrying myeloid markers but lacking distinguishing terminal differentiation markers). Mass cytometry time of flight (CyTOF) was used for the determination of the pharmacodynamic markers using a previously validated and tested panel of mass-tagged antibodies[39],[40]. The antibodies in the panel are listed in Supplementary Table 5. Briefly, fixed leukocytes from peripheral blood were barcoded using a 20-plex metal barcoding kit (Standard Biotools, Cell-ID 201060) according to manufacturer’s protocol, allowing all the samples from a single individual to be stained and analysed in parallel. All analysis runs included barcoded peripheral blood mononuclear cells (PBMCs) from at least one healthy donor and an identical barcoded reference sample (mix of PBMCs from six healthy donors). […]
For each population, marker, and sample, the 95th percentile of the non-transformed expression values was calculated. […]

With `Nc1nc(Nc2ccc3c(c2)CC[C@@H](N2CCCC2)CC3)nn1-c1cc2c(nn1)-c1ccccc1CCC2` [Bemcentinib] the “mEFS (95% CI)” value (AML/MDS patients; DE 200/100 mg, N=4) was 4.4 (0.5-NA) months, the “mOS (95% CI)” value (AML/MDS patients; DE 200/100 mg, N=4) was 5.9 (4.4-NA) months and the “mEFS (95% CI)” value (AML/MDS patients; DE 400/100 mg, N=6) was 5.3 (2.6-NA) months. The “mOS (95% CI)” value (AML/MDS patients; DE 400/100 mg, N=6) was 19 (2.6-NA) months, the “mEFS (95% CI)” value (AML/MDS patients; DE 400/200 mg, N=7) was 1.6 (0.7-NA) months and the “mOS (95% CI)” value (AML/MDS patients; DE 400/200 mg, N=7) was 8.6 (0.8-NA) months. The “mEFS (95% CI)” value (AML/MDS patients; DE 600/200 mg, N=14) was 1.2 (0.7-2.1) months, the “mOS (95% CI)” value (AML/MDS patients; DE 600/200 mg, N=14) was 2.5 (1.1-NA) months and the “mOS (95% CI)” value (AML/MDS patients; DE 900/300 mg, N=5) was 6.9 (NA-NA) months. The “mEFS (95% CI)” value (AML/MDS patients; DE overall, N=36) was 2.1 (1.4-2.8) months, the “mOS (95% CI)” value (AML/MDS patients; DE overall, N=36) was 5.3 (2.6-9.1) months and the EC50 (pAKT S473; Homo sapiens, Undefined/Immature Myeloid cells, N = 12 patients, read-out: EC50 (± standard error), pAKT S473 inhibition) was 0.162 µg/mL (≈ 0.32 µM). For the same molecule, the “Maximum inhibition (percent) pAKT (S473)” value (pAKT S473; Supplementary Figure 1d, individual patients) was 59.9% and 67.4% and 81.4% and 10.2% and 98.8% and 2.4% and 56.3% and 0% and 5.8% and 33.9% and 39.1% and 94.9%.
